Source: patent US20110071158A1, “NEW COMPOUNDS” (BOEHRINGER INGELHEIM INTERNATIONAL GMBH, priority 2009, published 2011)

Target: T1, PTK2 enzyme (Homo sapiens, UniProt Q05397)
T1 construct: purchased Invitrogen PV3832
Experiment: PTK2 enzyme test, Assay 1 (DELFIA, poly-Glu-Tyr substrate, antibody PT60)
Type: biochemical
Conditions: Assay 1 (values without *); 1 h pre-incubation, 2% DMSO
Protocol: This test uses active PTK2 enzyme (Invitrogen Code PV3832) and poly-Glu-Tyr (4:1, Sigma P-0275) as the kinase substrate. The kinase activity is detected through the phosphorylation of the substrate in a DELFIA™ assay. The phosphorylated substrate is detected with the europium-labelled phosphotyrosine antibody PT60 (Perkin Elmer, No.: AD00400).
In order to determine concentration-activity curves with PTK2-inhibitors the compounds are serially diluted in 10% DMSO/H2O and 10 μL of each dilution are placed in each well of a 96-well microtitre plate (clear plate with a U-shaped base, Greiner No. 650101) (the inhibitors are tested in duplicates) and mixed with 10 μL/well of PTK2 kinase (0.01 μg/well). PTK2 kinase has been correspondingly diluted beforehand with kinase dilution buffer (20 mM TRIS/HCl pH 7.5, 0.1 mM EDTA, 0.1 mM EGTA, 0.286 mM sodium orthovanadate, 10% glycerol with the addition of freshly prepared BSA (fraction V, 1 mg/mL) and DTT (1 mM)). The test compound and the PTK2 kinase are pre-incubated for 1 h at RT and shaken at 500 revolutions per min. The reaction is started by the addition of 10 μL/well poly (Glu,Tyr) substrate (25 μg/well poly (Glu, Tyr), 0.05 μg/well biotinylated poly (Glu,Tyr) dissolved in 250 mM TRIS/HCl pH 7.5, 9 mM DTT)—the final concentration of DMSO is 2%. Then 20 μL of ATP Mix (30 mM TRIS/HCl pH 7.5, 0.02% Brij, 0.2 mM sodium orthovanadate, 10 mM magnesium acetate, 0.1 mM EGTA, 1× phosphatase inhibitor cocktail 1 (Sigma, No.: P2850), 50 μM ATP (Sigma, No.: A3377; 15 mM stock solution)) are added. After 1 h of kinase reaction (the plates are shaken at 500 rpm), the reaction is stopped by the addition of 12 μL/well 100 mM EDTA, pH 8.0 and shaken for a further 5 min at RT (500 rpm). 55 μL of the reaction mixture are transferred into a streptavidin plate (Strepta Well High Bind (transparent, 96-well) made by Roche, No.: 11989685001) and incubated for 1 h at RT (shaking at 500 rpm). Then the microtitre plate is washed three times with 200 μL/well D-PBS (Invitrogen, No. 14190). 100 μL of a solution containing DELFIA Eu-N1 Anti-Phosphotyrosine PT60 antibody (Perkin Elmer, No.: AD0040, diluted 1:2000 in DELFIA test buffer (Perkin Elmer, No.: 1244-111)) is then added and the mixture is incubated for 1 h at RT (shaking at 500 rpm). Then the plate is washed three times with 200 μL/well DELFIA washing buffer (Perkin Elmer, No.: 1244-114), 200 μL/well strengthening solution (Perkin Elmer, No.: 1244-105) are added and the mixture is incubated for 10 min at RT (shaking at 300 rpm).
The time-delayed europium fluorescence is then measured in a microtitre plate reader (VICTOR^3, Perkin Elmer). […] Wells that contain test buffer instead of enzyme are used as a control of the background kinase activity.
The IC50 values are determined from analyses of the concentration activity by iterative calculation with the aid of a sigmoid curve analysis algorithm (FIFTY, based on Graph PAD Prism Version 3.03) with a variable Hill coefficient.

T1 sequence (Q05397 whole entry): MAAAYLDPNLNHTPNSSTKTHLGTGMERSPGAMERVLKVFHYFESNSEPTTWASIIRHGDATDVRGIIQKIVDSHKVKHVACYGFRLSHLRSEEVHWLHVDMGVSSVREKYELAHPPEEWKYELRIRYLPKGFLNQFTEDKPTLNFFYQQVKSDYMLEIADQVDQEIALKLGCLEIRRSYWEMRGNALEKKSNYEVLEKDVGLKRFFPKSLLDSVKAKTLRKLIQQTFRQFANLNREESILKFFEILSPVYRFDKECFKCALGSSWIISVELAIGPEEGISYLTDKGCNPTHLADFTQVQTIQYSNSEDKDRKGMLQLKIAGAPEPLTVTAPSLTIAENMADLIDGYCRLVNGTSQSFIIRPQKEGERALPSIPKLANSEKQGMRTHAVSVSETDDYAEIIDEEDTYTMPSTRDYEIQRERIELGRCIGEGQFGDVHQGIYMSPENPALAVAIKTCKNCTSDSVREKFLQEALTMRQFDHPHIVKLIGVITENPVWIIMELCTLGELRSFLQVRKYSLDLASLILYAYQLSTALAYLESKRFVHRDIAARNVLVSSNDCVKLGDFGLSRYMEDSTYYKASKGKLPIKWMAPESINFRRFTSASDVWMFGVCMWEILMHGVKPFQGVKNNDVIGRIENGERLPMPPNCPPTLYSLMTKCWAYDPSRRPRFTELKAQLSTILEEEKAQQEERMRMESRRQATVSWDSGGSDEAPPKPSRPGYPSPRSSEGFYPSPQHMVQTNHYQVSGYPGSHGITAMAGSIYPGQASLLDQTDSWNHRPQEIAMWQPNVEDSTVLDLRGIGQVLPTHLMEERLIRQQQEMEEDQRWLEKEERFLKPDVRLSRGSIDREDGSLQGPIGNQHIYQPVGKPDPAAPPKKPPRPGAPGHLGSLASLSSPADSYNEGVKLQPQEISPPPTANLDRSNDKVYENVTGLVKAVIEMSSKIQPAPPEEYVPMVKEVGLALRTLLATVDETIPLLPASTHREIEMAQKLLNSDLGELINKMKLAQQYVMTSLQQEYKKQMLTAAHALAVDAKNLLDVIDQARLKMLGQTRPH

Row | IC50 | Structure (SMILES)
1 | 26 nM | COc1cc(C(=O)N(C)C)ccc1Nc1ncc(Cl)c(N[C@@H]2CCCC[C@H]2NC(C)=O)n1 [Example I-57]
2 | 1 nM | CCN1CCC(NC(=O)c2cc(OC)c(Nc3ncc(C(F)(F)F)c(N[C@@H]4CCCC[C@H]4N(C)C(C)=O)n3)cc2F)CC1 [Example I-161]
3 | 16 nM | CCN([C@@H]1CCCC[C@H]1Nc1nc(Nc2ccc(NC(C)=O)c(C)c2)ncc1C(F)(F)F)S(C)(=O)=O [Example I-188]
4 | 1 nM | COc1cc(C(=O)NC2CCCN(C)C2)ccc1Nc1ncc(Cl)c(N[C@@H]2CCCC[C@H]2NC(C)=O)n1 (stereo partly shown) [Example I-62]
5 | 2 nM | COCCNC(=O)c1ccc(Nc2ncc(Br)c(N[C@@H]3CCCC[C@H]3NC(C)=O)n2)c(OC)c1 [Example I-52]
6 | 2 nM | COc1cc(C(=O)NC2CCN(C)CC2)ccc1Nc1ncc(C(F)(F)F)c(N[C@@H]2CCCC[C@H]2N2CCCC2=O)n1 [Example I-97]
7 | 1 nM | COc1cc(N2CCN(C)CC2)ccc1Nc1ncc(C(F)(F)F)c(N[C@@H]2CCCC[C@H]2NC(C)=O)n1 [Example I-29]
8 | 2 nM | COc1cc(C(=O)NCCN(C)C)c(Cl)cc1Nc1ncc(Br)c(N[C@@H]2CCCC[C@H]2N(C)S(C)(=O)=O)n1 [Example I-172]
9 | 2 nM | COc1cc(C(=O)NC2CCCN(C)C2)ccc1Nc1ncc(C(F)(F)F)c(N[C@@H]2CCCC[C@H]2NC(C)=O)n1 (stereo partly shown) [Example I-41]
10 | 10 nM | COCC(=O)N(C)[C@@H]1CCCC[C@H]1Nc1nc(Nc2ccc(C(=O)NC3CCN(C)CC3)cc2OC)ncc1C(F)(F)F [Example I-3, 3-methoxy-4-(4-{(1R,2R)-2-[(2-methoxy-acetyl)-methyl-amino]-cyclohexylamino}-5-trifluoromethyl-pyrimidin-2-ylamino)-N-(1-methyl-piperidin-4-yl)-benzamide]
11 | 4 nM | COc1cc(C(=O)NC2CCN(C)CC2)c(F)cc1Nc1ncc(Cl)c(N[C@@H]2CCCC[C@H]2N(C)S(C)(=O)=O)n1 [Example I-174]
12 | 3 nM | CNCc1ccc(Nc2ncc(C(F)(F)F)c(N[C@@H]3CCCC[C@H]3NC(=O)C3CCC3)n2)c(OC)c1 [Example I-75]
13 | 7 nM | COc1cc(C(=O)NC2CCOCC2)c(F)cc1Nc1ncc(C(F)(F)F)c(N[C@@H]2CCCC[C@H]2NC(C)=O)n1 [Example I-86]
14 | 2 nM | COc1cc(C(=O)NC2CCN(C)CC2)ccc1Nc1ncc(C(F)(F)F)c(N[C@@H]2CCCC[C@H]2NC(C)=O)n1 [Example I-11]
15 | 4 nM | CNC(=O)c1ccc(Nc2ncc(C(F)(F)F)c(N[C@@H]3CCCC[C@H]3NC(C)=O)n2)c(OC)c1 [Example I-6]
16 | 3 nM | COc1cc(C(=O)NC2CCOCC2)ccc1Nc1ncc(Cl)c(N[C@@H]2CCCC[C@H]2NC(C)=O)n1 [Example I-60]
17 | 2 nM | COc1cc(C(=O)NC2CCOCC2)ccc1Nc1ncc(Br)c(N[C@@H]2CCCC[C@H]2NC(C)=O)n1 [Example I-44]
18 | 24 nM | CCN(CC)C(=O)CN[C@@H]1CCCC[C@H]1Nc1nc(Nc2ccc(C(=O)NC3CCN(C)CC3)cc2OC)ncc1C(F)(F)F [Example I-24]
19 | 81 nM | COc1cc(C(=O)NC2CCN(C)CC2)ccc1Nc1ncc(C(F)(F)F)c(N[C@H]2CCCC[C@@H]2NC(C)=O)n1 [Example I-35]

Row | IC50 | Structure (SMILES)
20 | 4 nM | COc1cc(N2CCN(C(C)(C)C)CC2)ccc1Nc1ncc(Br)c(N[C@@H]2CCCC[C@H]2N(C)S(C)(=O)=O)n1 [Example I-182]
21 | 3 nM | COc1cc(N2CCN(C(C)(C)C)CC2)ccc1Nc1ncc(C(F)(F)F)c(N[C@@H]2CCCC[C@H]2N(C)S(C)(=O)=O)n1 [Example I-145]
22 | 1 nM | COc1cc(C(=O)NC2CCN(C)CC2)ccc1Nc1ncc(Cl)c(N[C@@H]2CCCC[C@H]2NC(C)=O)n1 [Example I-64]
23 | 1 nM | COc1cc(C(=O)N[C@@H]2CCCN(C)C2)ccc1Nc1ncc(C(F)(F)F)c(N[C@@H]2CCCC[C@H]2N(C)C(C)=O)n1 [Example I-111]
24 | 23 nM | COc1cc(C(=O)NC2CCN(C)CC2)ccc1Nc1ncc(C(F)(F)F)c(N[C@@H]2CCCC[C@H]2NCC(=O)N(C)OC)n1 [Example I-26]
25 | 1 nM | COc1cc(C(=O)NC2CCN(C)CC2)ccc1Nc1ncc(Br)c(N[C@@H]2CCCC[C@H]2NC(C)=O)n1 [Example I-50]
26 | 2 nM | COc1cc(Nc2ncc(C(F)(F)F)c(N[C@@H]3CCCC[C@H]3N(C)S(C)(=O)=O)n2)ccc1C(=O)NC1CCN(C)CC1 [Example I-173]
27 | 0.93 nM | COc1cc(C(=O)NOCCN(C)C)ccc1Nc1ncc(C(F)(F)F)c(N[C@@H]2CCCC[C@H]2N(C)S(C)(=O)=O)n1 [Example I-132]
28 | 2 nM | CCN1CCC(NC(=O)c2cc(OC)c(Nc3ncc(C(F)(F)F)c(N[C@@H]4CCCC[C@H]4NC(C)=O)n3)cc2F)CC1 [Example I-87]
29 | 3 nM | COc1cc(C(=O)NC2CCN(C)CC2)c(F)cc1Nc1ncc(C(F)(F)F)c(N[C@@H]2CCCC[C@H]2NC(=O)C(C)C)n1 [Example I-121]
30 | 24 nM | CCN(CC)C(=O)CN[C@@H]1CCCC[C@H]1Nc1nc(Nc2cc(F)c(C(=O)NC3CCN(C)CC3)cc2OC)ncc1C(F)(F)F [Example I-25]
31 | 3 nM | COc1cc(C(=O)NC2CCN(C)CC2)ccc1Nc1ncc(C(F)(F)F)c(N[C@@H]2CCCC[C@H]2NC(=O)C2CCC2)n1 [Example I-23]
32 | 6 nM | CON[C@@H]1CCCC[C@H]1Nc1nc(Nc2ccc(C(=O)NC3CCN(C)CC3)cc2OC)ncc1C(F)(F)F [Example I-119]
33 | 1 nM | COc1cc(C(=O)NC2CCCN(C)C2)ccc1Nc1ncc(Br)c(N[C@@H]2CCCC[C@H]2NC(C)=O)n1 (stereo partly shown) [Example I-45]
34 | 4 nM | COc1cc(C(=O)NC2CCN(C)CC2)ccc1Nc1ncc(C(F)(F)F)c(N[C@@H]2CCCC[C@H]2NC(=O)C(C)(C)C)n1 [Example I-16]
35 | 70 nM | COc1cc(N2CCN(C)CC2)ccc1Nc1ncc(C(F)(F)F)c(N[C@@H]2CCCC[C@H]2NC(=O)CC(C)C)n1 [Example I-33]
36 | 3 nM | COc1cc(C(=O)NC2CCN(C3CC3)CC2)ccc1Nc1ncc(Cl)c(N[C@@H]2CCCC[C@H]2NC(C)=O)n1 [Example I-63]
37 | 1 nM | COc1cc(C(=O)NCCN(C)C)ccc1Nc1ncc(Cl)c(N[C@@H]2CCCC[C@H]2NC(C)=O)n1 [Example I-59]
